Measured values published in paper PMC8406801, “Naringenin Inhibits Platelet Activation and Arterial Thrombosis Through Inhibition of Phosphoinositide 3-Kinase and Cyclic Nucleotide Signaling” (Frontiers in Pharmacology, 2021).
Several values for one entry are separate records, joined by “and”; a condition that tells them apart may be missing. Equal entries are not always repeated.

Tested on: VASP Ser239 phosphorylation
Assay: Immunoblotting of phospho-VASP (Ser239) in ADP-stimulated washed platelets, with or without PKA, PKG, PKC inhibitors
Format: cell-based, rat
Settings: for p-VASP(Ser239) / GAPDH (Fold to ADP only) / p-VASP(Ser239) / GAPDH (raw data): ADP-stimulated, Figure 7C
Description: For in vitro platelet aggregation, aliquots of washed platelets were preincubated with vehicle or various concentrations of naringenin for 5 min and stimulated with ADP (10 μmol/L) under stirring at 37°C for 5 min. For ex vivo platelet aggregation, PRP was incubated at 37°C for 5 min and stimulated with ADP (5 μmol/L) under stirring at 37 °C. The platelet aggregation was terminated by adding ethylenediaminetetraacetic acid (EDTA; 10 mM). Total protein was prepared using RIPA lysis buffer and protein content was determined by bicinchoninic acid (BCA) protein assay kit. Equal amounts of platelet proteins (30 μg) were separated on 10% SDS polyacrylamide gel electrophoresis (SDS-PAGE) and then transferred to poly vinylidene difluoride (PVDF) membranes and subjected to western blot. Blots were blocked with TBS-Tween 20 containing 5% BSA and probed with primary antibodies diluted in blocking solution at 4°C overnight followed by incubation with the corresponding HRP secondary antibodies. The protein bands were visualized using enhanced chemiluminescence (ECL).
VASP is a substrate for cAMP- and cGMP- dependent protein kinases, which mediate cAMP- and cGMP-dependent inhibitory signaling in platelets, respectively. Increased cAMP levels followed by the activation of cAMP-dependent protein kinase A (PKA) phosphorylates VASP at position Ser157, whereas the elevation of cGMP leads to VASP phosphorylation at position Ser239 by cGMP-dependent protein kinase G (PKG) ([Aszódi et al., 1999]; [Li et al., 2003a]). To further examine whether naringenin modulates cAMP- or cGMP-mediated inhibitory signaling, the phosphorylation of VASP (Ser157 and Ser239) in washed platelets on stimulation with ADP were measured in the absence or presence of naringenin (100, 200, 400, and 800 μM). […] To further confirm the antiplatelet effects of naringenin through PKA-dependent signaling, the effects of naringenin on platelet aggregation were measured in the presence of PKG inhibitor (Rp-8-Br-PET-cGMPS) and PKA inhibitor (H89).
FIGURE 7 Naringenin promotes VASP phosphorylation. The effects of naringenin on phosphorylation of VASP (at positions Ser 157 and Ser239) were measured in washed platelets upon stimulation with ADP (10 μmol/L) by western blotting (A). The blots shown are representative of three separate experiments. The phosphorylation levels were quantified by ImageJ 1.47v software. The level of phosphorylation obtained with vehicle control (0 μM) was taken as 1 (B,C). R represents the phosphorylation level in resting platelets. Data are expressed as means ± SD (n = 3). *p < 0.05, ***p < 0.001 compared with the vehicle control group. VASP phosphorylation at Ser239 was also analyzed in washed platelets incubated with 5 μmol/L PKA (H89), 30 μmol/L PKG (Rp-8-Br-PET-cGMPS), or 5 μmol/L PKC (GF109203X) inhibitors before treatment with naringenin (D). Washed platelets were incubated with vehicle or naringenin (200 μmol/L) at 37°C in the presence or absence of 5 μmol/L PKA (H89) or 30 μmol/L PKG (Rp-8-Br-PET-cGMPS) inhibitors. After treatment, platelets were stimulated with ADP (10 μmol/L) to trigger aggregation (E). Data are expressed as means ± SD (n = 6). ***p < 0.001 compared with the ADP-treated group, ^# p < 0.05, ^### p < 0.001 compared with naringenin alone or H89 alone.

Q: How did the “phosphorylation of VASP at Ser239” value (ADP-stimulated washed platelets, 100, 200, 400, and 800 μM) turn out when `O=C1C[C@@H](c2ccc(O)cc2)Oc2cc(O)cc(O)c21` [Naringenin] was run?
A: The value was “induced the phosphorylation of VASP at Ser239”.

Q: What about the “p-VASP(Ser239) / GAPDH (Fold to ADP only)” value (naringenin 100 μM) of the same compound?
A: The value was 5.3418 and 4.6396 and 5.0239.

Q: What about the “p-VASP(Ser239) / GAPDH (raw data)” value (naringenin 100 μM) of the same compound?
A: Its value is 0.6957 and 0.6043 and 0.6543.

Q: And the “p-VASP(Ser239) / GAPDH (Fold to ADP only)” value (naringenin 200 μM)?
A: Its value is 4.4032 and 4.7219 and 3.7689.

Q: What about the “p-VASP(Ser239) / GAPDH (raw data)” value (naringenin 200 μM) of the same compound?
A: Its value is 0.5735 and 0.6150 and 0.4909.

Q: What about the “p-VASP(Ser239) / GAPDH (Fold to ADP only)” value (naringenin 400 μM) of the same compound?
A: Its value is 4.5890 and 4.9045 and 3.3393.

Q: What about the “p-VASP(Ser239) / GAPDH (raw data)” value (naringenin 400 μM) of the same compound?
A: Its value is 0.5977 and 0.6388 and 0.4349.

Q: What about the “p-VASP(Ser239) / GAPDH (Fold to ADP only)” value (naringenin 800 μM) of the same compound?
A: The value was 5.3132 and 6.0564 and 4.7205.

Q: And the “p-VASP(Ser239) / GAPDH (raw data)” value (naringenin 800 μM)?
A: Its value is 0.6920 and 0.7888 and 0.6148.
